{"source": "paper PMC10751545", "about": "(Science (New York, N.Y.), 2023)", "key": {"GPR158 [1]": {"biological_target": "T1, GPR158 (Homo sapiens, UniProt Q5T848)", "T1 sequence (Q5T848 24-1215)": "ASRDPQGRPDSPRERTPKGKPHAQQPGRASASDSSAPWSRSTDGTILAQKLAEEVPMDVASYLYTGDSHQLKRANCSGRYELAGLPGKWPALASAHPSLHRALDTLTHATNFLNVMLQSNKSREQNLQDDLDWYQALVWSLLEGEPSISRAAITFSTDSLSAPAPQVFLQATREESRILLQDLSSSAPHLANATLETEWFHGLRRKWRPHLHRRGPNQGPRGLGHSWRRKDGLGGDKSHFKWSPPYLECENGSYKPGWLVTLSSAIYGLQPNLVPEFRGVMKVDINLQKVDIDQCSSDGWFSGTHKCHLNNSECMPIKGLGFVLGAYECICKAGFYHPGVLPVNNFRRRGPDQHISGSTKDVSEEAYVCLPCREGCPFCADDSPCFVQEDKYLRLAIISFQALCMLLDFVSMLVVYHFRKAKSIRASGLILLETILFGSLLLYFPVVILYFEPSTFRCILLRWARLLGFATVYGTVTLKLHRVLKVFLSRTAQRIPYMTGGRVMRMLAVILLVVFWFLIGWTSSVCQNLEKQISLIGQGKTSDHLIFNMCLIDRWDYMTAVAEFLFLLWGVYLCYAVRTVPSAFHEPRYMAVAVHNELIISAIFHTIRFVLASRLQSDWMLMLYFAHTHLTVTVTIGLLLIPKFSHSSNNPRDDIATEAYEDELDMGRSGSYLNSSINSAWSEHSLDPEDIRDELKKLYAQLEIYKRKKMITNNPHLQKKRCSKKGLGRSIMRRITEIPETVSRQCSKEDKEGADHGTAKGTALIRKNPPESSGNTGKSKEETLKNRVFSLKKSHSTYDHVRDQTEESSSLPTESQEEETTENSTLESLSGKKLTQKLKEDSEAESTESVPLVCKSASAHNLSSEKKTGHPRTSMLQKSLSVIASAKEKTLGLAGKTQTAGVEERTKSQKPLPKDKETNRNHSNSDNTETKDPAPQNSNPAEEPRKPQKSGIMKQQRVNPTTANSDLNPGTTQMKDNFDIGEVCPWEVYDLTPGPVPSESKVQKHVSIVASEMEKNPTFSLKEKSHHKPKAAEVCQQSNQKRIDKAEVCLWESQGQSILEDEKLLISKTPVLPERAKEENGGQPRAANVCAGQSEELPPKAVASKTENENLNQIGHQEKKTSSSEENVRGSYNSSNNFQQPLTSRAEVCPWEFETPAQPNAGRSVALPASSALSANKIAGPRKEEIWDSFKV"}, "[2]": {"system": "GPR158 R173A, E271A, and Y269A mutants"}, "GPR158 [3]": {"biological_target": "T1, GPR158", "remark": "listed apart in the source"}, "GPR158 [4]": {"biological_target": "T1, GPR158", "remark": "listed apart in the source"}, "GPR158 [5]": {"biological_target": "T1, GPR158", "assay": "BRET-based cAMP biosensor screen in HEK293 cells expressing GPR158", "assay_type": "cell-based", "details": "for cAMP change in cells expressing GPR158 relative to non-transfected cells: BRET cAMP biosensor"}, "GPR158 [6]": {"biological_target": "T1, GPR158", "assay": "Binding competition, displacement of [3H]-glycine bound to GPR158"}, "GPR158 [7]": {"biological_target": "T1, GPR158", "assay": "G protein activation by GPR158", "assay_type": "cell-based", "details": "any G proteins tested"}, "GPR158-RGS7/Gβ5 complex": {"biological_target": "T2, GPR158-RGS7/Gβ5 complex (Homo sapiens, UniProt Q5T848)", "T2 sequence (Q5T848 24-1215)": "T1 sequence (Q5T848 24-1215)", "T2 sequence (P49802 1-495 partner)": "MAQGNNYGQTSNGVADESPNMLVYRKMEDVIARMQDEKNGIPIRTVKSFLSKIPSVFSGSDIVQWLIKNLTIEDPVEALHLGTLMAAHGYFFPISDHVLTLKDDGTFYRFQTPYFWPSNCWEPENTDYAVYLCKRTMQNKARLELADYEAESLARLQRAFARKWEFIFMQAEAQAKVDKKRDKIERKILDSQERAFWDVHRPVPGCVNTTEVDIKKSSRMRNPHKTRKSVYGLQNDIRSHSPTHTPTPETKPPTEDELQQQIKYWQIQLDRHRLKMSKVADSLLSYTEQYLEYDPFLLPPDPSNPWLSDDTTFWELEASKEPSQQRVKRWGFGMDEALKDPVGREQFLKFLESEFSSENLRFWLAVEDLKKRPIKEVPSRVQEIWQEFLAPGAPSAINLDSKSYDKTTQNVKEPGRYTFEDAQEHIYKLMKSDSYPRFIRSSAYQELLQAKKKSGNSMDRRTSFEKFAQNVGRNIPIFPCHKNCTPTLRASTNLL", "T2 sequence (O14775 1-395 partner)": "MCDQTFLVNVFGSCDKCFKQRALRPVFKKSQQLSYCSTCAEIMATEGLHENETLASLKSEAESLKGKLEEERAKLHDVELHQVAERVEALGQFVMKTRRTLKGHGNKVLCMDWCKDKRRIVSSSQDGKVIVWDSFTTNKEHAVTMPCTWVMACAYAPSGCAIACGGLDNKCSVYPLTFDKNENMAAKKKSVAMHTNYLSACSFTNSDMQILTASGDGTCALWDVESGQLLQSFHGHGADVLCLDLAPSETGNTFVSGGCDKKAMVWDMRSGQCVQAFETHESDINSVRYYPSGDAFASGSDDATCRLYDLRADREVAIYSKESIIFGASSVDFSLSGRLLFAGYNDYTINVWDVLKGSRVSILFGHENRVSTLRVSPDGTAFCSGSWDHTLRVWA", "assay": "BRET-based GAP assay", "assay_type": "cell-based"}, "[8]": {"system": "layer II-III neurons in the prelimbic cortex", "assay": "Slice electrophysiology, intrinsic excitability of cortical neurons", "assay_type": "cell-based, mice"}}, "note": "Where two headings read alike, the source gives them in different places.", "data": [{"smiles": "NCC(=O)O", "note": "[[^3H]-glycine, reference compound]", "values": [{"measurement": "binding to GPR158-expressing cells", "setting": "GPR158 [1]; HEK293 cells expressing GPR158, across concentrations", "value": "significant binding"}, {"measurement": "[3H]-glycine binding to mutants", "setting": "[2]", "value": "near complete loss"}]}, {"smiles": "NCC(=O)O", "note": "[glycine]", "values": [{"measurement": "Kd", "setting": "GPR158 [1]; read-out: Kd of GPR158 for glycine, Scatchard analysis, membranes containing GPR158", "value": "~3", "unit": "µM"}, {"measurement": "β-arrestin recruitment to GPR158", "setting": "GPR158 [3]", "value": "no significant response"}, {"measurement": "cAMP change in cells lacking GPR158", "setting": "GPR158 [4]; U87 glioblastoma cells lacking GPR158, glycine 100μM", "value": "No glycine-induced changes in cAMP"}, {"measurement": "cAMP change in cells expressing GPR158", "setting": "GPR158 [4]; U87 glioblastoma cells, 10μM forskolin, glycine 100μM", "value": "cAMP decrease"}, {"measurement": "cAMP change in cells expressing GPR158 relative to non-transfected cells", "setting": "GPR158 [5]", "value": "significant decrease in cAMP"}, {"measurement": "IC50", "setting": "GPR158 [6]; read-out: IC50, displacement of [3H]-glycine bound to GPR158", "value": "~3", "unit": "µM"}, {"measurement": "activation of G proteins by GPR158", "setting": "GPR158 [7]", "value": "no significant activation"}, {"measurement": "effect on Gαo deactivation, GPR158 co-expressed with RGS7/Gβ5", "setting": "GPR158-RGS7/Gβ5 complex; 100μM", "value": "significantly decelerated Gαo deactivation"}, {"measurement": "effect on baseline or RGS7/Gβ5-assisted Gαo deactivation without GPR158", "setting": "GPR158-RGS7/Gβ5 complex; cells without GPR158, 100μM", "value": "no effect"}, {"measurement": "resting membrane potential", "setting": "[8]; layer II-III neurons", "value": "without changes"}, {"measurement": "amount of current necessary to elicit the first action potential (rheobase)", "setting": "[8]; layer II-III neurons, glycine 1mM", "value": "decreasing"}, {"measurement": "number of action potentials", "setting": "[8]; layer II-III neurons, glycine 1mM, synaptic blockade", "value": "significantly increased"}, {"measurement": "intrinsic excitability of layer V neurons", "setting": "[8]; layer V neurons, which do not express GPR158", "value": "did not produce any changes"}, {"measurement": "excitability of layer II-III neurons in Gpr158 KO mice", "setting": "[8]; prefrontal cortex, Gpr158 KO mice, glycine 1mM", "value": "failed to alter excitability"}]}, {"smiles": "NCCS(=O)(=O)O", "note": "[taurine]", "values": [{"measurement": "effect on GPR158-mediated suppression of cAMP compared directly with glycine", "setting": "GPR158 [5]", "value": "weaker than the effect of glycine"}, {"measurement": "cAMP change in cells expressing GPR158 relative to non-transfected cells", "setting": "GPR158 [5]", "value": "significant decrease in cAMP levels"}, {"measurement": "IC50", "setting": "GPR158 [6]", "value": "~6", "unit": "µM"}, {"measurement": "affinity relative to glycine", "setting": "GPR158 [6]; competition with [3H]-glycine", "value": "two-fold lower affinity"}, {"measurement": "activation of G proteins by GPR158", "setting": "GPR158 [7]", "value": "no significant activation"}, {"measurement": "IC50", "setting": "GPR158-RGS7/Gβ5 complex", "value": "~6", "unit": "µM"}, {"measurement": "excitability (neuronal firing) of layer II-III neurons", "setting": "[8]; taurine", "value": "small effects on neuronal firing"}]}]}
